The record followed here is ChEMBL document CHEMBL1201862, “PubChem BioAssay data set” (2004).

Structures are written as SMILES.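 Results reflect a 48-hour exposure of cells in 96-well plates to compound at five concentrations. GI50 is the concentration that inhibits growth by half.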 The source made the active and inactive calls. Cut-off read from the data, not from the text of the source: active = GI50 up to about 1.1 µM and inactive = higher.

Some test systems named below: DMS-114; DMS-273; M19-MEL; LXFL 529; KM-20L2; XF498; RXF 631; SNB-78; HOP-18.
Experiment in all cases: growth of human tumour cells (NCI), 48 h

Take `COC(=O)c1ccccc1OCc1cc(=O)oc2ccc(C)cc12`: the GI50 is 89.3 µM (inactive) in the experiment with DMS-114; 71.3 µM (inactive) with DMS-273; > 100 µM (inactive) in the experiment on M19-MEL; 85.7 µM (inactive) in the experiment with LXFL 529; 82.2 µM (inactive) with KM-20L2; 31.8 µM (inactive) with XF498. In addition, in the experiment on RXF 631, the GI50 is > 100 µM (inactive).

Take `O=C1[C@@H]2C(c3ccccc3[N+](=O)[O-])=NO[C@@H]2C(=O)N1c1ccc(Cc2ccc(N3C(=O)[C@H]4C(c5ccccc5[N+](=O)[O-])=NO[C@H]4C3=O)cc2)cc1`: the GI50 in the experiment with DMS-114, with LXFL 529, in the experiment with SNB-78, in the experiment with HOP-18 and with KM-20L2 was > 100 µM (inactive) in each case.

With `COc1ccc(CC(=O)NCCc2ccc(OC)c(OC)c2OC)cc1`, the GI50 in the experiment with DMS-114, in the experiment with M19-MEL, in the experiment on LXFL 529, in the experiment with SNB-78, in the experiment with HOP-18 and in the experiment with KM-20L2 was > 100 µM (inactive) throughout. Further, the GI50 with XF498 and with RXF 631 was > 100 µM (inactive) in each case.

Consider `CCOc1ccc(/N=C(/NC(=O)c2ccccc2)SC)cc1`, for which the GI50 with DMS-114, with DMS-273, with M19-MEL, with LXFL 529, in the experiment on SNB-78 and in the experiment with HOP-18 was > 100 µM (inactive) throughout. Further, in the experiment on KM-20L2, the GI50 was > 100 µM (inactive).

Turning to `O=C1OC(c2cccc(C(F)(F)F)c2)c2ccc3ccccc3c21` (stereo unspecified), the GI50 was 5.57 µM (inactive) in the experiment on DMS-114; > 10 µM (inactive) with DMS-273; > 10 µM (inactive) in the experiment with M19-MEL; 8.3 µM (inactive) with LXFL 529; > 100 µM (inactive) in the experiment on SNB-78; > 10 µM (inactive) in the experiment with HOP-18. The GI50 was > 10 µM (inactive) in the experiment on KM-20L2, > 100 µM (inactive) in the experiment with XF498 and 3.42 µM (inactive) in the experiment on RXF 631.

As to `NC(=S)N/C=C1\C(=O)Oc2ccccc2C1=O`, the GI50 with DMS-114 is 48.4 µM (inactive); in the experiment with DMS-273, > 100 µM (inactive); with M19-MEL, > 100 µM (inactive); with LXFL 529 it was 85.7 µM (inactive); in the experiment with SNB-78 it was 94.2 µM (inactive); with HOP-18, 39.2 µM (inactive). Moreover, the figures for the GI50 with KM-20L2 and with XF498 were > 100 µM (inactive) and 32.3 µM (inactive), respectively.

As for `O=C(Nc1cc(Cl)c(Cl)cc1Cl)C(=O)C1C=CCS1(=O)=O` (stereo unspecified), the GI50 is > 100 µM (inactive) in the experiment with DMS-114; > 100 µM (inactive) in the experiment with DMS-273; > 100 µM (inactive) in the experiment with M19-MEL; > 100 µM (inactive) with LXFL 529; 11.2 µM (inactive) with SNB-78; > 100 µM (inactive) with HOP-18. Besides, the GI50 with KM-20L2 is > 100 µM (inactive).

For the molecule `C=C1CC2(OC1=O)c1ccccc1C=Cc1ccccc12`, the GI50 is 7.76 µM (inactive) in the experiment with DMS-114; 14.8 µM (inactive) in the experiment with DMS-273; 5.47 µM (inactive) with M19-MEL; 2.92 µM (inactive) with LXFL 529; 3.08 µM (inactive) in the experiment on SNB-78; 14.3 µM (inactive) in the experiment on HOP-18. In addition, the GI50 is 8.13 µM (inactive) with KM-20L2, 13.6 µM (inactive) in the experiment with XF498 and 9.2 µM (inactive) in the experiment on RXF 631.

For the molecule `C#CCN(C(=O)C(F)(F)F)c1ccc(C(=O)c2ccc(N(CC#C)C(=O)C(F)(F)F)cc2)cc1`, the GI50 was 20.7 µM (inactive) in the experiment on DMS-114; 24.1 µM (inactive) in the experiment on DMS-273; 35.5 µM (inactive) in the experiment with M19-MEL; 27.7 µM (inactive) with LXFL 529; 52.4 µM (inactive) in the experiment on SNB-78; > 100 µM (inactive) in the experiment with KM-20L2.

For `O=[N+]([O-])c1ccc(/C=N/C2CCCCC2)cc1`, the GI50 with DMS-114, in the experiment on DMS-273, in the experiment on M19-MEL, in the experiment on SNB-78, in the experiment on HOP-18 and in the experiment with KM-20L2 was > 100 µM (inactive) each time. The GI50 in the experiment on XF498 and in the experiment with RXF 631 was > 100 µM (inactive) each time.

For the molecule `CCC(C)(O)c1cn(-c2cccc(S(=O)(=O)O)c2)nn1` (stereo unspecified), the GI50 in the experiment on DMS-114, in the experiment with DMS-273, with LXFL 529, in the experiment with SNB-78, with HOP-18 and with KM-20L2 was > 100 µM (inactive) in each case. For the same molecule, the GI50 in the experiment on XF498 is > 100 µM (inactive).

With `O=S1(=O)OCCOS(=O)(=O)C1(Cl)Cl`, the GI50 in the experiment with DMS-114 was > 100 µM (inactive); in the experiment on DMS-273, 53.1 µM (inactive); in the experiment with M19-MEL, > 100 µM (inactive); with LXFL 529, > 100 µM (inactive); in the experiment with SNB-78, > 100 µM (inactive); in the experiment on XF498, > 100 µM (inactive). Also, in the experiment with RXF 631, the GI50 is > 100 µM (inactive).

Take `COc1ccc(-c2nc(N)nc(-c3cc(C)ccc3O)c2Cl)cc1`: the GI50 was 48.2 µM (inactive) in the experiment with DMS-114; 43.7 µM (inactive) with DMS-273; 93.3 µM (inactive) in the experiment on M19-MEL; 33 µM (inactive) with LXFL 529; 24.3 µM (inactive) with SNB-78; > 100 µM (inactive) in the experiment with HOP-18. Moreover, the GI50 with KM-20L2 was > 100 µM (inactive); in the experiment with XF498, 35.6 µM (inactive); with RXF 631 it was > 100 µM (inactive).

Take `CCOc1ccc(NC(=O)CC2SC(Nc3ccc(C)cc3C)=NC2=O)cc1` (stereo unspecified): the GI50 in the experiment on DMS-273 is > 100 µM (inactive); in the experiment with M19-MEL, > 100 µM (inactive); in the experiment on LXFL 529, 66.2 µM (inactive); in the experiment with SNB-78, > 100 µM (inactive); in the experiment on KM-20L2, > 100 µM (inactive); with XF498, 50.4 µM (inactive).

On to `COC(=O)C(C(=O)C(=O)Nc1nnc(S)[nH]1)c1csc(N)n1` (stereo unspecified), for which the GI50 in the experiment with DMS-273, with M19-MEL, with LXFL 529, in the experiment with SNB-78, in the experiment on HOP-18 and in the experiment on KM-20L2 was > 100 µM (inactive) each time. The GI50 with XF498 and in the experiment on RXF 631 was > 100 µM (inactive) in each case.

As to `COc1ccc(CCNCCCC2c3ccccc3-c3ccccc32)cc1OC`, the GI50 in the experiment on DMS-114 was 7.48 µM (inactive); with DMS-273, 7.28 µM (inactive); in the experiment with M19-MEL, 11.1 µM (inactive); in the experiment with LXFL 529, 14.1 µM (inactive); in the experiment on SNB-78, 15.7 µM (inactive); in the experiment on HOP-18, 16.8 µM (inactive). The GI50 is 3.45 µM (inactive) with KM-20L2 and 14.7 µM (inactive) in the experiment with XF498.

As for `COc1ccc(NC(=O)CCc2cc(C(C)(C)C)[nH]n2)cc1`, the GI50 in the experiment on DMS-273, in the experiment with M19-MEL, with LXFL 529, in the experiment on SNB-78, in the experiment on HOP-18 and in the experiment on KM-20L2 was > 100 µM (inactive) each time. Moreover, the GI50 in the experiment with XF498 and with RXF 631 was > 100 µM (inactive) in each case.

`COc1cc(/C=N\O[Si](C)(C)C(C)(C)C)ccc1O[Si](C)(C)C(C)(C)C`: the GI50 in the experiment on DMS-114 was 28.1 µM (inactive); in the experiment on DMS-273, > 100 µM (inactive); with M19-MEL it was 74.5 µM (inactive); with LXFL 529, 70.1 µM (inactive); with SNB-78, > 100 µM (inactive); in the experiment on HOP-18 it was > 100 µM (inactive). In addition, the GI50 was > 100 µM (inactive) in the experiment with KM-20L2, 38.6 µM (inactive) in the experiment with XF498 and 30.1 µM (inactive) in the experiment on RXF 631.

For the molecule `COc1cc(C(C)c2cc3c(cc2OCCCCCOc2cc4c(cc2C(C)c2cc(OC)c(OC)c(OC)c2)OCO4)OCO3)cc(OC)c1OC` (stereo unspecified), the GI50 with DMS-273, in the experiment on M19-MEL, in the experiment on LXFL 529 and in the experiment on KM-20L2 was > 100 µM (inactive) throughout.

As to `CCOC(=O)CC1(C(=O)OCC)c2[nH]c3ccccc3c2CCN1Cc1ccccc1` (stereo unspecified), the GI50 is 18.3 µM (inactive) in the experiment with DMS-114; 17.3 µM (inactive) in the experiment on DMS-273; 14.3 µM (inactive) with M19-MEL; 25.4 µM (inactive) in the experiment on LXFL 529; 40.7 µM (inactive) with SNB-78; 23 µM (inactive) with HOP-18. Moreover, the figures for the GI50 in the experiment with KM-20L2 and in the experiment on XF498 were 17.1 µM (inactive) and 24.2 µM (inactive), respectively.

Regarding `CN(C)[C@@H]1C(O)=C(C(=O)NCNCCCC(=O)O)C(=O)[C@@]2(O)C(O)=C3C(=O)c4c(O)cccc4[C@@](C)(O)[C@H]3C[C@@H]12`, the GI50 in the experiment on DMS-114, with DMS-273, with M19-MEL, in the experiment on LXFL 529, in the experiment on SNB-78 and with HOP-18 was > 100 µM (inactive) in each case. Besides, the GI50 in the experiment with KM-20L2 and in the experiment on XF498 was > 100 µM (inactive) each time.

Consider `N#C/C(=C\c1ccc2[nH]ccc2c1)C(=O)c1ccc(O)c(O)c1`, for which the GI50 in the experiment with DMS-114 is 81.7 µM (inactive); in the experiment with DMS-273, 57.3 µM (inactive); with M19-MEL it was > 100 µM (inactive); with LXFL 529, > 100 µM (inactive); with SNB-78, > 100 µM (inactive); in the experiment on HOP-18 it was 71.4 µM (inactive). In the experiment with KM-20L2, the GI50 was 61.5 µM (inactive).

For the molecule `O=c1[nH]c(=O)n([C@@H]2O[C@H](CO)[C@@H](O)[C@H]2O)cc1F` [5-FLUOROURIDINE], the GI50 with DMS-114 is 10.4 µM (inactive); in the experiment with DMS-273 it was 0.312 µM (active); with M19-MEL, 0.481 µM (active); in the experiment on LXFL 529, 0.15 µM (active); in the experiment on SNB-78, 0.211 µM (active); in the experiment with KM-20L2 it was 0.594 µM (active). Moreover, the figures for the GI50 in the experiment on XF498 and in the experiment on RXF 631 were 1.92 µM (inactive) and 1.05 µM (active), respectively.
